Data from patent publication US11413278B2, “Compounds and methods for promoting stress resistance” (priority 2015, dated 2022).
Read-outs that look alike come from different tables or passages of the source.

What was measured:
WI-38 cells [1] = assay: Propidium iodide (PI) cell-death imaging upon H2O2 stress; format: cell-based, human; settings: for Assay 7: H2O2-resistant, at 10 uM, validated by propidium iodide (PI) cell-death imaging: w/H2O2, 3 hrs/4 hrs/5 hrs, YES/NO; for cytotoxicity at 10 µM: Homo sapiens, WI-38
human PARP1 = target: T1, human PARP1 (Homo sapiens, UniProt P09874); assay: PARP inhibitor assay (HT Fluorescent Homogeneous PARP Inhibition Assay Kit); format: biochemical; settings: score
T1 construct: purchased Trevigen
Procedure, shortened: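 Human PARP1 with NAD and activated DNA, compounds at 10 μM final, 30 min at room temperature in dark. Resazurin/diaphorase cycling mix then added for 1 hr in dark before stop buffer; fluorescent homogeneous kit read-out.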

WI-38 cells [2] = assay: CdCl2 (cadmium) resistance assay; format: cell-based, human; settings: for fold induction at 10 µM: Homo sapiens, 12 h, normalized ATP measurement; for Assay 4: H2O2- & Cd-resistant / Assay 2: Cadmium-resistant: YES/NO; for Assay 2: Cadmium-resistant: * indicates partial
Procedure, shortened: (§1)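 WI-38 cells were given compounds at five final concentrations (0.25–20 μM) in triplicate, followed by cadmium or MMS for 12 h. For MMS, medium was switched from OptiMEM+10% FBS to serum-free DMEM+2% BSA when compounds were added, 24 h before stressor. Two independent assays were run, analysed by global variance t-test.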

WI-38 cells [3] = assay: MMS resistance assay; format: cell-based, human; settings: for fold induction at 10 µM: Homo sapiens, 12 h, normalized ATP measurement
Procedure, shortened: as §1

[4] = test system: human dermal fibroblast (HDF) primary cells; assay: H2O2-resistance in primary human dermal fibroblasts; format: cell-based; settings: for fold induction at 10 µM: Homo sapiens; for Assay 6: H2O2-resistant, at 10 uM, human dermal fibroblast (HDF) primary cells: YES/NO
[5] = test system: PC12 cells expressing poly(Q)103-Htt-EGFP; assay: Poly(Q) toxicity & viability analysis (cellular model of Huntington's disease); format: cell-based, rat; settings: for M = Huntington's poly-Q toxicity attenuation: score; for K = Huntington's poly-Q toxicity attenuation: summary score
Procedure: Viability assays were performed as described before (Aiken et al., 2004). PC12 cells that stably express the inducible poly(Q)103-Htt-EGFP were grown in culture. […] Cell viability was analyzed 48 hrs later by measuring ATP content with CellTiter-Glo.
Toxic protein aggregation is a key feature of many age-related neurodegenerative diseases, including Alzheimer's and Huntington's disease (Caughey and Lansbury, 2003; Ross and Poirier, 2004). A number of animal models (Phillips et al., 2009) and cell models (Schlachetzki et al., 2013) have been established to study these diseases. For this purpose, PC12 rat pheochromocytoma cells display neuronal features and produce neurotransmitters and have been used extensively to study neuronal phenotypes, including synaptic transmission and neurological diseases. […] In this model, induced expression of poly(Q)103-Htt-EGFP could lead to the formation of aggregates and exert substantial toxicity in cells.

WI-38 cells [6] = settings: no H2O2 stress, 10 uM; negative control 0.41% ± 0.23%
Procedure: WI-38 cells were seeded on 384-well plates for 24 hrs and then incubated with small molecules for 24 hrs. […] Images were collected on an INCell Analyzer 2000 (GE) and analyzed with the Developer software.

[7] = Summary score for characterization of 38 core set hits; settings: for D = Triple resistant: 2-point score, multiplex resistance (cadmium, MMS, H2O2); for C = H2O2- & Cd-resistant: score, resistance to both H2O2 and cadmium
Procedure: 38 “core set” small molecules are listed and are assigned a score, based on the result for each individual characterization. From our small molecule screen for H2O2-resistance, we isolated 61 top hits. […] Specifically, a 2-point score was assigned to the most well-known and prominent longevity-related phenotypes, such as multiplex resistance, activation of FOXO3 and/or NRF2, and down-regulation of mTOR. Small molecules were also analyzed for their ability to extend C. elegans' lifespan in 4 to 6 independent trials, and the lifespan score scale is from 0 to 2: 0 for no obvious effects, 1 for lifespan extension observed in 2 trials, 2 for observed in more than 2 trials. Certain molecules appeared to have DNA-damaging effects and/or potential cell-toxicity in cultured human cells, and they receive a negative point.

[8] = H2O2 3 hrs, 10 uM, n = 6, negative control 5.44% ± 0.79%, read-out: Percentage of propidium iodide-positive dead cells (under H2O2 stress treatment), 3 hrs
[9] = H2O2 4 hrs, 10 uM, n = 6, negative control 16.81% ± 1.42%, read-out: Percentage of propidium iodide-positive dead cells (under H2O2 stress treatment), 4 hrs
[10] = pre-treatment at 10 uM, 3.5 hours of H2O2, DMSO control 27.4% ± 6.5%, */**/*** = reduced by one/two/three standard deviations, read-out: Percentage of propidium iodide-positive dead cells (under H2O2 stress treatment), at 10 uM
[11] = Exp. 1, WI-38 cells, read-out: Exp. 1, under Cd2Cl2 stress treatment, at 10 uM (fold change)
[12] = Exp. 2, WI-38 cells, read-out: Exp. 2, under Cd2Cl2 stress treatment, at 10 uM (fold change)
[13] = WI-38 cells, 10 μM, both stressors
[14] = score in summary of 38 core set hits
[15] = Exp. 1, WI-38 cells, read-out: Exp. 1, under MMS stress treatment, at 10 uM (fold change)
[16] = Exp. 2, WI-38 cells, read-out: Exp. 2, under MMS stress treatment, at 10 uM (fold change)
[17] = Experiment 1, HDF cells, read-out: Experiment 1, HDF cells (under H2O2 stress treatment), at 10 uM (fold change)
[18] = Experiment 2, HDF cells, read-out: Experiment 2, HDF cells (under H2O2 stress treatment), at 10 uM (fold change)

T1 sequence (P09874 whole entry): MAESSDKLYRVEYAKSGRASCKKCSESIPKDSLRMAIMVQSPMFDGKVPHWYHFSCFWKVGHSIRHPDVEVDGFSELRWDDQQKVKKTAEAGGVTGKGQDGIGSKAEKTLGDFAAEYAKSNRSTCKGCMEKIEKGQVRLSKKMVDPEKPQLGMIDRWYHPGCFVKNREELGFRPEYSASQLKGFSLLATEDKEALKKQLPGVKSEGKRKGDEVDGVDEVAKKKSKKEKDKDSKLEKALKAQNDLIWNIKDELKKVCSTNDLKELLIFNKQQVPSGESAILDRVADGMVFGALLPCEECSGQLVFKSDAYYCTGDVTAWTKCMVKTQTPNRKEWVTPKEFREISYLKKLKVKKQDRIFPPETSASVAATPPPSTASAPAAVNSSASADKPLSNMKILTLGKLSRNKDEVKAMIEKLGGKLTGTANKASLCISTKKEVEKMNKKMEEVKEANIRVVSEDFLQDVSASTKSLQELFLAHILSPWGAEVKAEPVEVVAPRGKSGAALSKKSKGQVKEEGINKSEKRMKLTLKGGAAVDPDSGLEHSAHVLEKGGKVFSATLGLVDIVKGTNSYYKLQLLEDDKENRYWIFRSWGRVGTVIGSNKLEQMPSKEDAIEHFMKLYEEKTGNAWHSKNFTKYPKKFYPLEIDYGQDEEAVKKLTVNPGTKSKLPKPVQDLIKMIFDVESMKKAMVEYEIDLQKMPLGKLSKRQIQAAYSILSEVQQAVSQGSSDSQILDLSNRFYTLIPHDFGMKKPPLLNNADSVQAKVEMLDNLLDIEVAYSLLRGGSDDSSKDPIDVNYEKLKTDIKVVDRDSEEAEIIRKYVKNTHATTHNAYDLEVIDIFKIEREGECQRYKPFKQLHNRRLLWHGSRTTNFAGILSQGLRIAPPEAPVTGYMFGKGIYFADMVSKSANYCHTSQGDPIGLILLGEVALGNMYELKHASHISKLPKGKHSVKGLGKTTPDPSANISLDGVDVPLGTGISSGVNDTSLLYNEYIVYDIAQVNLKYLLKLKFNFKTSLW

SMILES | Assay 7: H2O2-resistant, at 10 uM, validated by propidium iodide (PI) cell-death imaging (WI-38 cells [1]; 10 uM) | cytotoxicity at 10 µM (WI-38 cells [1]; [8]) [%] | cytotoxicity at 10 µM (WI-38 cells [1]; [10]) [%] | L = PARP inhibition (human PARP1) | CdCl2-resistant (WI-38 cells [2]) | H2O2- & CdCl2-resistant (WI-38 cells [2]) | fold induction at 10 µM (WI-38 cells [2]; [11]) | fold induction at 10 µM (WI-38 cells [2]; [12]) | CdCl2-resistant (WI-38 cells [2]; WI-38 cells, 10 μM) | H2O2- & CdCl2-resistant (WI-38 cells [2]; [13]) | Assay 4: H2O2- & Cd-resistant (WI-38 cells [2]) | Assay 2: Cadmium-resistant (WI-38 cells [2]) | A = Cadmium resistant (WI-38 cells [2]; [14]) | A = Cadmium resistant (WI-38 cells [2]; summary score) | C = H2O2- & Cd-resistant (WI-38 cells [2]; summary score) | fold induction at 10 µM (WI-38 cells [3]; [15]) | fold induction at 10 µM (WI-38 cells [3]; [16]) | B = MMS resistant (WI-38 cells [3]; [14]) | B = MMS resistant (WI-38 cells [3]; summary score) | D = Triple resistant (WI-38 cells [3]; summary score) | further results
CC1C(=O)C(C)C(c2cc(Cl)ccc2O)NC1c1cc(Cl)ccc1O (centres unmarked) [O6] | YES | 0.8 | 16.8 | 0 | YES | YES | 2.18 | 2.05 | YES | YES | YES | YES | 1 | 1 | 1 | 0.81 | 0.79 | 0 | 0 | 0 | cytotoxicity at 10 µM (WI-38 cells [1]; [9]): 4.92%; cytotoxicity at 10 µM (WI-38 cells [1]; H2O2 5 hrs, 10 uM, n = 6, negative control 22.50% ± 1.53%, read-out: Percentage of propidium iodide-positive dead cells (under H2O2 stress treatment), 5 hrs): 9.82%; fold induction at 10 µM [4, 17]: 285; fold induction at 10 µM [4, 18]: 22.2; Assay 6: H2O2-resistant, at 10 uM, human dermal fibroblast (HDF) primary cells [4]: YES; M = Huntington's poly-Q toxicity attenuation [5]: 0; K = Huntington's poly-Q toxicity attenuation [5]: 0; Percentage of propidium iodide-positive dead cells (no H2O2 stress treatment), at 10 uM (WI-38 cells [6]): 0.36% ± 0.10%,; D = Triple resistant [7]: 0; S = Sum of Negative scores ([7]; human): 0; C = H2O2- & Cd-resistant [7]: 1
COc1ccc(C(=O)/C=C/c2ccccc2Br)c(OC)c1 [Gr-4B] | YES | 3.31 | 3.4 | 0 | YES | YES | 2 | 1.52 | YES | YES | YES | YES | 1 | 1 | 1 | 1.22 | 1.54 | 0 | 1 | 2 | Assay 3: MMS-resistant (WI-38 cells [3]; YES/NO, * indicates partial): YES; Assay 5: Triple resistant (WI-38 cells [3]; YES/NO, H2O2, cadmium and MMS): YES; fold induction at 10 µM [4, 17]: 13.7; fold induction at 10 µM [4, 18]: 55.6; Assay 6: H2O2-resistant, at 10 uM, human dermal fibroblast (HDF) primary cells [4]: YES; M = Huntington's poly-Q toxicity attenuation [5]: 0; K = Huntington's poly-Q toxicity attenuation [5]: 0; Percentage of propidium iodide-positive dead cells (no H2O2 stress treatment), at 10 uM (WI-38 cells [6]): 0.36% ± 0.13%,; D = Triple resistant [7]: 0; C = H2O2- & Cd-resistant [7]: 1; S = Sum of Negative scores ([7]; sum of columns Q and R): 0
O=C(Nc1nc(C23CC4CC(CC(C4)C2)C3)cs1)C(c1ccccc1)c1ccccc1 [O10] | YES | 2.19 | 3.6 | 0 | YES | YES | 2.73 | 2 | YES | YES | YES | YES | 1 | 1 | 1 | 1.08 | 4.08 | 0 | 0 | 0 | cytotoxicity at 10 µM (WI-38 cells [1]; [9]): 4.27%; fold induction at 10 µM [4, 17]: 12.6; fold induction at 10 µM [4, 18]: 8.91; Assay 6: H2O2-resistant, at 10 uM, human dermal fibroblast (HDF) primary cells [4]: YES; M = Huntington's poly-Q toxicity attenuation [5]: 0; K = Huntington's poly-Q toxicity attenuation [5]: 0; Percentage of propidium iodide-positive dead cells (no H2O2 stress treatment), at 10 uM (WI-38 cells [6]): 0.54% ± 0.16%,; D = Triple resistant [7]: 0; S = Sum of Negative scores ([7]; human): 0; C = H2O2- & Cd-resistant [7]: 1
